Results: US10125098B2, “Therapeutic compounds and methods of use thereof” (GENENTECH, INC., priority 2014, dated 2018)
Structures can show the parent of a compound that is named as a salt. Where two headings read alike, the source gives them in different places.

Experiments:
[1] = molecular target: T1, NaV1.5 (Homo sapiens, UniProt Q14524); test: Patch voltage clamp electrophysiology assay (EP), NaV1.5; assay type: cell-based; details: HEK-293 cells stably expressing NaV1.5 with β1 subunit, whole-cell patch clamp, membrane potential −60 mV (inactivated state)
T1 construct: permanently transfected with an expression vector containing the full-length cDNA coding for the desired human sodium channel α-subunit; expressed in transfected cells; host or cells: HEK-293
In short: (§1)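 Percent block is the drop in sodium current after compound wash-on, measured by a test pulse following 20 ms at −150 mV from a −60 mV inactivating holding potential.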

[2] = molecular target: T2, human NaV1.7 (Homo sapiens, UniProt Q15858); test: Patch voltage clamp electrophysiology assay (EP), NaV1.7; assay type: cell-based; details: HEK-293 cells stably expressing NaV1.7 with β1 subunit; whole-cell patch clamp, membrane potential −60 mV (inactivated state)
T2 construct: permanently transfected with an expression vector containing the full-length cDNA coding for the desired human sodium channel α-subunit; expressed in transfected cells; host or cells: HEK-293
In short: as §1

[3] = molecular target: T3, hNav1.7 (Homo sapiens, UniProt Q15858); test: Tritiated compound binding (LBA) to membranes from cells expressing hNav1.7 and the β1 subunit, competitive binding; details: competitive binding vs 100 pM [3H]compound, 18 h, room temperature, membranes with hNav1.7 and β1 subunit
T3 construct: expressed in transfected cells
In short: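 Competitive displacement of 100 pM [3H]compound (tritiated methyl analogue of formula (I)) from hNav1.7/β1 membranes, 18 h at room temperature in NaCl/Tris pH 7.4 buffer containing 0.01% BSA. 1 μM unlabeled compound set non-specific binding. Bound label quantified by scintillation after filtration; 4-parameter fit gave IC50.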

[4] = human, HEK-293 cells stably expressing human NaV1.5 with β1 subunit, pH 7.4

T1 sequence (Q14524 whole entry): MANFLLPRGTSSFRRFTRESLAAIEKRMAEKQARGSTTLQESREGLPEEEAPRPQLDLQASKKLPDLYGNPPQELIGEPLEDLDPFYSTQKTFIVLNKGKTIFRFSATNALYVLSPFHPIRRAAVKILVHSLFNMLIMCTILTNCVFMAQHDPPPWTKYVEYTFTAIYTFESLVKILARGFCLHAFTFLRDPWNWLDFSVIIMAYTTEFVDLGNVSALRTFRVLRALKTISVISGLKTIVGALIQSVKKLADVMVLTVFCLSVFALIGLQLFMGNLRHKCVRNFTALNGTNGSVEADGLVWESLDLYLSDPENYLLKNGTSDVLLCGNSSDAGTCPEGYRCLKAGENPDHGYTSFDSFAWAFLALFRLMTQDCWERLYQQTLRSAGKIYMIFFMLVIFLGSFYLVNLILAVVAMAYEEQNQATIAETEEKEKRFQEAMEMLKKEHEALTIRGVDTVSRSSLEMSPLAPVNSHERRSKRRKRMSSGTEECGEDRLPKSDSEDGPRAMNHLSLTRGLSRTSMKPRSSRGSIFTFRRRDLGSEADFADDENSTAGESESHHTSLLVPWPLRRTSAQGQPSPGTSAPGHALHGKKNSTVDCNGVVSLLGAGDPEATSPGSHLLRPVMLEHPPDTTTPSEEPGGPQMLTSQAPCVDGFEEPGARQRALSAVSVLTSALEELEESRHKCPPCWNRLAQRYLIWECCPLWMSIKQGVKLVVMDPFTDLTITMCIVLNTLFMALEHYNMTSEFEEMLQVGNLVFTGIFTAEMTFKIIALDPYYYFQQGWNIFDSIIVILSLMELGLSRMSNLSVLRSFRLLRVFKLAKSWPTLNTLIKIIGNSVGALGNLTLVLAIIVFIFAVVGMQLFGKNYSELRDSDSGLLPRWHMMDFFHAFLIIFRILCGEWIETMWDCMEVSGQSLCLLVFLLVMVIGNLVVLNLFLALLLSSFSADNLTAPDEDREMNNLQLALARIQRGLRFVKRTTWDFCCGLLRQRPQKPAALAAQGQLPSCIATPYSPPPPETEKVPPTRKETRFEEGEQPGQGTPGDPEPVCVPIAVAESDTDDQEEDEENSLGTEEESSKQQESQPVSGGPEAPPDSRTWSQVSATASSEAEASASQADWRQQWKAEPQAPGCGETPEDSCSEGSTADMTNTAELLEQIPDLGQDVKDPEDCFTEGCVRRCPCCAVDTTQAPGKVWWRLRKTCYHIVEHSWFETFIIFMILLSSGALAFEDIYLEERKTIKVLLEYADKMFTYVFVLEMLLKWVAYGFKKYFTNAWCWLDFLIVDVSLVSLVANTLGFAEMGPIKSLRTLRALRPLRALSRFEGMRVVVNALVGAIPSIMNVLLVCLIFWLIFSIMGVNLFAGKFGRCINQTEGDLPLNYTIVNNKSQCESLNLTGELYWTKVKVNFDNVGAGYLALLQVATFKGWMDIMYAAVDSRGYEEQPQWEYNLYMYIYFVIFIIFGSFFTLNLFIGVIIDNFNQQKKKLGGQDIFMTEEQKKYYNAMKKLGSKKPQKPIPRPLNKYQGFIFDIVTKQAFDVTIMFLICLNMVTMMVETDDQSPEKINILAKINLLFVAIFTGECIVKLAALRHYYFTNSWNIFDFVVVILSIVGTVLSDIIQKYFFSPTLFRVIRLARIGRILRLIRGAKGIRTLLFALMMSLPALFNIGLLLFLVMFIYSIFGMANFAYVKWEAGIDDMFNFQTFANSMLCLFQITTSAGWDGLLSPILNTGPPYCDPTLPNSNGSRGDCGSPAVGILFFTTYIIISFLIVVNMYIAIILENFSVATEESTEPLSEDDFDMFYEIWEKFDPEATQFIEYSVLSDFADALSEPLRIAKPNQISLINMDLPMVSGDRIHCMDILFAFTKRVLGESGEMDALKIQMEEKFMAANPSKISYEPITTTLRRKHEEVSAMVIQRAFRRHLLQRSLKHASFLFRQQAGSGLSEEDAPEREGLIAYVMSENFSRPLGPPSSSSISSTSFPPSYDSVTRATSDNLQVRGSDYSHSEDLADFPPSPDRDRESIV
T2 sequence (Q15858 1-1977 isoform Q15858-3): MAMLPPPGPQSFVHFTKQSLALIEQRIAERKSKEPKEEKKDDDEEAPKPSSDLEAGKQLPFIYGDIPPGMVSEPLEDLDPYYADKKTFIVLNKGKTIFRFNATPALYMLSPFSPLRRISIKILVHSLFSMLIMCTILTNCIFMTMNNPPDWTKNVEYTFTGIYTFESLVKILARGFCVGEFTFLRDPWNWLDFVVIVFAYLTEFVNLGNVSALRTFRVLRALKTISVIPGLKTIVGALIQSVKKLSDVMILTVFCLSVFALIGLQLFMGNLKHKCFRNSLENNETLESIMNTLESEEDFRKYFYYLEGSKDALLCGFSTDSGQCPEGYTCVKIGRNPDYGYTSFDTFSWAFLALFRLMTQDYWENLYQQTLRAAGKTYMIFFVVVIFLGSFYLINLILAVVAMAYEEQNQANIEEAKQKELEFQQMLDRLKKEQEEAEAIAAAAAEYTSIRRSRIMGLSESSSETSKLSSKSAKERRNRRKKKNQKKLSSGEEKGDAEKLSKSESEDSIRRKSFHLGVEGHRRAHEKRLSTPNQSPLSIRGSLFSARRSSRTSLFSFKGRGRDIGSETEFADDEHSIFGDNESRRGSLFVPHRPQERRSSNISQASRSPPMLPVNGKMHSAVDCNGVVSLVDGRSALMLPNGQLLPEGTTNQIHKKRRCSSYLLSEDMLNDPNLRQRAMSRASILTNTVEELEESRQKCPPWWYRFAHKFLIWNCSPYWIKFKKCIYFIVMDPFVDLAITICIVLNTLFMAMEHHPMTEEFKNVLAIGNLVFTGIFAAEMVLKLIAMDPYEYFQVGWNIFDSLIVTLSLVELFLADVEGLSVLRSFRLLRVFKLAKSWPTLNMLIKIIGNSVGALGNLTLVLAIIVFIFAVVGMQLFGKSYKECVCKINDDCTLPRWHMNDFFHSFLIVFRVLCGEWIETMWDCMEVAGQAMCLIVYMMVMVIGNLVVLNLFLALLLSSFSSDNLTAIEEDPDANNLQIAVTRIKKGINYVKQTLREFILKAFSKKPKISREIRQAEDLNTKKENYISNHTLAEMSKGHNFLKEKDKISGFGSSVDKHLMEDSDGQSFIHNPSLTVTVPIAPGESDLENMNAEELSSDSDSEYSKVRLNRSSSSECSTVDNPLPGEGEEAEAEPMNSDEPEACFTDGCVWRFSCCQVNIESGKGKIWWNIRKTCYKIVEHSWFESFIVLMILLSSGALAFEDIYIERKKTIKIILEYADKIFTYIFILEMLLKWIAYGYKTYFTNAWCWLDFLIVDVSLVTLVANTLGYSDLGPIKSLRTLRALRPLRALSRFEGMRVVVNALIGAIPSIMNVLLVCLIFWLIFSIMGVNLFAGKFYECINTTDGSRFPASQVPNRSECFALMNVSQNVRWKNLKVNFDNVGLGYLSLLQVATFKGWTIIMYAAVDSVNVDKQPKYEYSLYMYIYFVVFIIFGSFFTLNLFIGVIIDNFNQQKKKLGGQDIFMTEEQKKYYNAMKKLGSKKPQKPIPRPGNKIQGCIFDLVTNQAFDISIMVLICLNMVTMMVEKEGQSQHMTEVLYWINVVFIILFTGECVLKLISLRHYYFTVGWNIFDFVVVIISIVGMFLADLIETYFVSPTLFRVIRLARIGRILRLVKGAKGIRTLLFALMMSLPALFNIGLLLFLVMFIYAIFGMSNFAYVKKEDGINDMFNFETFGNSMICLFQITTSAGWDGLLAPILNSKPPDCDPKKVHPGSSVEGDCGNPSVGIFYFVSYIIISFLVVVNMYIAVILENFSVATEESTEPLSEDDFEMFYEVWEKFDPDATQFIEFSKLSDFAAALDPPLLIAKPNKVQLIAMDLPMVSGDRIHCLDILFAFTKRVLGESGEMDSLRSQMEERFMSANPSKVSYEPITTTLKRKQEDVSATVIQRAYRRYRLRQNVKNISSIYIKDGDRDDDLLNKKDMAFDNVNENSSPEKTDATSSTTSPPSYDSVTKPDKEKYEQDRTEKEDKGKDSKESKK
T2 sequence (Q07699 19-218 partner): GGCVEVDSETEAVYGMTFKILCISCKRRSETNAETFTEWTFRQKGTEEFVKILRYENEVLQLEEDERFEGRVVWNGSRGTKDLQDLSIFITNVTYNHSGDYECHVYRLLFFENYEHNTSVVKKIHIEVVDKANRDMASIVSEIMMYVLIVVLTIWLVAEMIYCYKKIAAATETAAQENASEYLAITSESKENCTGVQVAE
T3 sequence (Q15858 1-1977 isoform Q15858-3): as the sequence (Q15858 1-1977 isoform Q15858-3) above
T3 sequence (Q07699 19-218 partner): as the sequence (Q07699 19-218 partner) above

Compound	IC50 [1, 4] [nM]	IC50 [2] [nM]	IC50 [3] [nM]	IC50 ([1]; read-out: Nav1.5) [nM]
O=C(O)[C@@H]1CCCN1C(=O)c1cc(F)c(OCC23CC4CC(CC(C4)C2)C3)cc1F [Example 71, (4-(adamantan-1-ylmethoxy)-2,5-difluorobenzoyl)-L-proline]	≥ 30000	11000	6100	
O=C(O)C1COCCN1C(=O)c1cc(C2CC2)c(OCC23CC4CC(CC(C4)C2)C3)cc1F (stereo not drawn) [Example 72, 4-(4-(adamantan-1-ylmethoxy)-5-cyclopropyl-2-fluorobenzoyl)morpholine-3-carboxylic acid]		5600	3600	24000
O=C(N[C@H](C(=O)O)C1CC1)c1cc(C2CC2)c(OCC23CC4CC(CC(C4)C2)C3)cc1F [Example 74, (S)-2-(4-(adamantan-1-ylmethoxy)-5-cyclopropyl-2-fluorobenzamido)-2-cyclopropylacetic acid]		700	24	7500
O=C(O)[C@@H]1[C@@H](O)CCN1C(=O)c1cc(C2CC2)c(OCC23CC4CC(CC(C4)C2)C3)cc1F [Example 75, (2S,3S)-1-(4-(adamantan-1-ylmethoxy)-5-cyclopropyl-2-fluorobenzoyl)-3-hydroxypyrrolidine-2-carboxylic acid]		1300	600	25000
CO[C@H]1CCN(C(=O)c2cc(C3CC3)c(OCC34CC5CC(CC(C5)C3)C4)cc2F)[C@@H]1C(=O)O [Example 76, (2S,3 S)-1-(4-(adamantan-1-ylmethoxy)-5-cyclopropyl-2-fluorobenzoyl)-3-methoxypyrrolidine-2-carboxylic acid]		1000	87	17000
O=C(NC1(C(=O)O)COC1)c1cc(C2CC2)c(OCC23CC4CC(CC(C4)C2)C3)cc1F [Example 77, 3-(4-(adamantan-1-ylmethoxy)-5-cyclopropyl-2-fluorobenzamido)oxetane-3-carboxylic acid]		11000	7400	12000
O=C(O)C1SCCN1C(=O)c1cc(C2CC2)c(OCC23CC4CC(CC(C4)C2)C3)cc1F (stereo not drawn) [Example 78, 3-(4-(adamantan-1-ylmethoxy)-5-cyclopropyl-2-fluorobenzoyl)thiazolidine-2-carboxylic acid]		87	9.4	13000
O=C(O)[C@@H]1CCCCN1C(=O)c1cc(C2CC2)c(OCC23CC4CC(CC(C4)C2)C3)cc1F [Example 83, (S)-1-(4-(adamantan-1-ylmethoxy)-5-cyclopropyl-2-fluorobenzoyl)piperidine-2-carboxylic acid]		2000	480	14000
O=C(O)C[C@H](NC(=O)c1cc(C2CC2)c(OCC23CC4CC(CC(C4)C2)C3)cc1F)C(=O)O [Example 84, (S)-2-(4-(adamantan-1-ylmethoxy)-5-cyclopropyl-2-fluorobenzamido)succinic acid]	≥ 30000	17000	≥ 10000	
O=C(O)[C@@H]1CCCN1C(=O)c1ccc(OCC23CC4CC(CC(C4)C2)C3)c(C(F)(F)F)c1 [Example 85, (S)-1-(4-(adamantan-1-ylmethoxy)-3-(trifluoromethyl)benzoyl)-pyrrolidine-2-carboxylic acid]		1100	590	17000
O=C(O)[C@@H]1CCN1C(=O)c1cc(C2CC2)c(OCC23CC4CC(CC(C4)C2)C3)cc1F [Example 86, (S)-1-(4-(adamantan-1-ylmethoxy)-5-cyclopropyl-2-fluorobenzoyl)azetidine-2-carboxylic acid]		1900	1600	26000
CC[C@H](NC(=O)c1cc(C2CC2)c(OCC23CC4CC(CC(C4)C2)C3)cc1F)C(=O)O [Example 87, (S)-2-(4-(adamantan-1-ylmethoxy)-5-cyclopropyl-2-fluorobenzamido)butanoic acid]		1300	56	7100
CC(C)C[C@H](NC(=O)c1cc(C2CC2)c(OCC23CC4CC(CC(C4)C2)C3)cc1F)C(=O)O [Example 88, (S)-2-(4-(adamantan-1-ylmethoxy)-5-cyclopropyl-2-fluorobenzamido)-4-methylpentanoic acid]		7000	430	8200
CCc1cc(C(=O)N2CCC[C@H]2C(=O)O)c(F)cc1OCC12CC3CC(CC(C3)C1)C2 [Example 89, (S)-1-(4-(adamantan-1-ylmethoxy)-5-ethyl-2-fluorobenzoyl)pyrrolidine-2-carboxylic acid]		790	130	17000
CC1(C)[C@H]2CC[C@H](COc3cc(F)c(C(=O)N4CCC[C@H]4C(=O)O)cc3C3CC3)[C@@H]1C2 [Example 90, (S)-1-(5-cyclopropyl-4-(((1S, 2S, 5S)-6,6-dimethylbicyclo[3.1.1]heptan-2-yl)methoxy)-2-fluorobenzoyl)pyrrolidine-2-carboxylic acid]		160	21	13000
CC(c1cc(Cl)cc(Cl)c1)N1CCC(COc2cc(F)c(C(=O)N3C[C@H](F)C[C@H]3C(=O)O)cc2C2CC2)CC1 (stereo partly drawn) [Example 91, (2S, 4R)-1-(5-cyclopropyl-4-((1-(1-(3,5-dichlorophenyl)ethyl)piperidin-4-yl)methoxy)-2-fluorobenzoyl)-4-fluoropyrrolidine-2-carboxylic acid]		300	15	23000
O=C(O)[C@@H]1C[C@@H](F)CN1C(=O)c1cc(C2CC2)c(OCC2CCN(Cc3cc(C(F)(F)F)cc(C4CC4)n3)CC2)cc1F [Example 93, (2S, 4R)-1-(5-cyclopropyl-4-((1-((6-cyclopropyl-4-(trifluoromethyl)-pyridin-2-yl)methyl)piperidin-4-yl)methoxy)-2-fluorobenzoyl)-4-fluoropyrrolidine-2-carboxylic acid]	≥ 30000	660	81	
O=C(O)[C@@H]1C[C@@H](F)CN1C(=O)c1cc(C2CC2)c(OCCC2CCN(Cc3cc(Cl)cc(Cl)c3)CC2)cc1F [Example 94, (2S, 4R)-1-(5-cyclopropyl-4-(2-(1-(3,5-dichlorobenzyl)piperidin-4-yl)ethoxy)-2-fluorobenzoyl)-4-fluoropyrrolidine-2-carboxylic acid]	≥ 30000	600	100	
O=C(O)C1CC=NN1C(=O)c1cc(C2CC2)c(OCC23CC4CC(CC(C4)C2)C3)cc1F (stereo not drawn) [Example 96, 1-(4-(adamantan-1-ylmethoxy)-5-cyclopropyl-2-fluorobenzoyl)-4,5-dihydro-1H-pyrazole-5-carboxylic acid]	≥ 30000	1500	380	
CC(C)COc1ncc(Oc2cc(F)c(C(=O)N3CCC[C@H]3C(=O)O)cc2Cl)cc1Cl [Example 97, 5-chloro-4-((5-chloro-6-isobutoxypyridin-3-yl)oxy)-2-fluorobenzoyl)-L-proline trifluoroacetic acid salt]	≥ 30000	570	440	
